Reference: US7074825B2, “Composition and method for treating cancer” (priority 2002, dated 2006)
Several values for one entry are separate records, joined by “and”; a condition that tells them apart may be missing. Equal entries are not always repeated. Where two headings read alike, the source gives them in different places.

Key:
B16 melanoma cells = assay: B16 melanoma cell proliferation (cell count / CellTiter 96); conditions: for Growth (average percent cell survival relative to the control group after 72 h exposure period): geranyl anthranilate 30 μM, alone or all three together; for Observed Growth (empirical percentage survival): 40 hour exposure
Experimental: B16 melanoma cells were grown in monolayer culture (35×10 mm flasks) in 3 ml RPMI 1640 medium supplemented with 10% fetal bovine serum (FBS) and 80 mg gentamicin/L. The cultures, seeded with 3.3×10^4 cells/mL, were incubated for 24 h at 37° C. in a humidified atmosphere of 5% CO2. The medium was decanted and replaced with fresh medium containing the test agents. Tocotrienol, perillyl alcohol, and geranyl- or farnesyl-hydroquinone ethers were dissolved in ethanol; and lovastatin and genistein were dissolved in dimethyl sulfoxide, DMSO. The incubations were continued for an additional 48 h. All cultures contained 1 ml/L each of ethanol and DMSO. The medium and detached cells were decanted, the monolayer was washed twice with Hanks' Balanced Salt Solution (HBSS) and then incubated with a trypsin-EDTA solution at 37° C. for 2 min. Trypsin was inactivated by suspending the cells in medium containing 10% FBS. The trypsinized cells were pelleted at 250 xg and resuspended in HBSS. Viable cells, cells that excluded 0.4% trypan blue were counted with a hemocytometer; 24-h cell counts were deducted from final cell counts to provide an estimate of the net increase in cell number.
Measurement of B16 cell proliferation was confirmed by using CellTiter 96, Aqueous One Solution (Promega). Seeding density was determined in the following pilot test. B16 cells were maintained in monolayer culture (96-well tissue culture plate) in 0.1 mL of the medium described above. Cultures, seeded in escalating densities (0-8000 cells/well with a 500-cell interval), were incubated for 72 h at 37° C. in a humidified atmosphere of 5% CO2. At 24 h the medium was decanted from each well and replaced with 0.1 mL fresh medium. The 72-h cell populations were determined by adding 20 μl of CellTiter 96, Aqueous One Solution to each well; the plate was held in dark at 37° C. for 2 h and then read at 490 nm with a SPECTRAmax, 190 multi-plate reader with SOFTmax, PRO version 3.0 (Molecular Devices). Cell survival data were assessed as absorbance versus cell seeding density. The absorbance has a linear correlation with cell seeding density up to 2000 B16 cells/well. The midpoint of cell inoculation density, 1000 cells/well, was chosen for B16 cell proliferation assay. This procedure of determining seeding density also applies to all other cell lines in which the CellTiter 96, Aqueous One Solution was used for proliferation assay. In the proliferation assay, B16cells were incubated in 96-well plates for 24 h. The medium was decanted from each well and replaced with 0.1 mL fresh medium containing the test agents. Incubation continued for an additional 48 h. Cell populations of all wells were determined according to CellTiter 96 procedure as described above. Cell proliferation represents the net absorbance, the difference in absorbance between final and 24-h measurements.

[1] = system: Human DU145 prostate carcinoma cells; assay: DU145 cell proliferation, CellTiter 96, 72 h exposure; type: cell-based; conditions: for Growth (average percent cell survival relative to the control group after 72 h exposure period) / Growth (average percent cell survival relative to the control group) / Absorbance (net absorbance at 490 nm, net growth after 72 h): DU145; for Growth (average percent cell survival relative to the control group after 72 h exposure period): lovastatin […], alone or all three together; for IC50: DU145 cells, estimated, read-out: IC50 (suppression of proliferation)
Experimental: (§1) Seeding density was determined in the following pilot test. […] Incubation continued for an additional 48 h.
(§2) Incubation continued for additional 72 h.

[2] = system: Human PC-3 prostate adenocarcinoma cells; assay: PC-3 cell proliferation, CellTiter 96, 72 h exposure; type: cell-based; conditions: for IC50: PC-3 cells, estimated, read-out: IC50 (suppression of proliferation); for Growth (average percent cell survival relative to the control group): PC3; for Absorbance (net absorbance at 490 nm, net growth after 72 h): PC-3
Experimental: as §1, §2

[3] = system: Human LNCaP prostate carcinoma cells; assay: LNCaP cell proliferation, CellTiter 96, 72 h exposure; type: cell-based
Experimental: as §1, §2

[4] = system: DU145 cancer cell cultures; assay: Cell phase distribution by flow cytometry (propidium iodine), DU145; type: cell-based, Human; conditions: genistein 10 μM, lovastatin […], γ-tocotrienol 5 μM, alone or all three together; for G2 phase cells: control 11.6%; for G1 phase cells: control 65.4%; for S phase cells: control […]
From the text: (§3) Subsequent to the treatment of the cancer cells with these HGM-CoA reductase inhibitors, the cells were fixed in ethanol, treated with RNase and stained with propidium iodine. Fluorescent measurements were then made via a flow cytometer using a laser. A double discriminator was used as the primary gate to eliminate cell aggregates. The distribution profiles associated with the various phases (G1, S) were then obtained through the use of least squares fits of the frequency emission spectra.

B16 cancer cell cultures = assay: Cell phase distribution by flow cytometry (propidium iodine), B16; type: cell-based; conditions: genistein 5 μM, lovastatin 0.5 μM, geranyl anthranilate 30 μM, alone or all three together; for G2 phase cells: control 12.7%; for S phase cells: control 22.5%; for G1 phase cells: control 64.9%
From the text: as §3

[5] = genistein 10 μM, γ-tocotrienol 5 μM
[6] = genistein 5 μM, lovastatin 0.5 μM
[7] = perillyl alcohol 800 μM, negative = cell killing

Compound: C/C=C(\C)C(=O)OCC=C(C)CCC=C(C)CCC=C(C)C [Farnesyl Tiglate, farnesyl tiglate]
- Growth (average percent cell survival relative to the control group) (B16 melanoma cells; farnesyl tiglate 25 μM): 70%
- Growth (average percent cell survival relative to the control group) (B16 melanoma cells; farnesyl tiglate 50 μM): 49%

Compound: CC[C@H](C)C(=O)O[C@H]1C[C@@H](C)C=C2C=C[C@H](C)[C@H](CC[C@@H]3C[C@@H](O)CC(=O)O3)[C@H]21 [Lovastatin, [1S-[1α(R*),3α,7β,8β(2S*,4S*), 8a.β.]]-2-methylbutanoic acid 1,2,3,7,8,8a-hexahydro-3,7-dimethyl-8-[2-(tetrahydro-4-hydroxy-6-oxo-2H-pyran-2-yl)ethyl]-1-naphthalenyl ester, reference compound]
- Growth (average percent cell survival relative to the control group after 72 h exposure period) [1, 5]: 100%
- Growth (average percent cell survival relative to the control group) ([1]; lovastatin 3 μM): 100%
- Growth (average percent cell survival relative to the control group) ([1]; lovastatin 3.0 μM): 100%
- Absorbance (net absorbance at 490 nm, net growth after 72 h) ([1]; lovastatin 4 μM): 0.37
- Absorbance (net absorbance at 490 nm, net growth after 72 h) ([1]; lovastatin 8 μM): 0.30
- Absorbance (net absorbance at 490 nm, net growth after 72 h) ([1]; lovastatin 16 μM): 0.18
- Absorbance (net absorbance at 490 nm, net growth after 72 h) ([1]; lovastatin 32 μM): 0.15
- IC50 ([1]; Homo sapiens, DU-145): 18 ± 2 µM
- IC50 ([2]; Homo sapiens): 2.2 ± 0.5 µM
- Growth (average percent cell survival relative to the control group) ([2]; lovastatin 0.75 μM): 87 ± 3%
- Absorbance (net absorbance at 490 nm, net growth after 72 h) ([2]; lovastatin 1 μM): 0.32
- Absorbance (net absorbance at 490 nm, net growth after 72 h) ([2]; lovastatin 2 μM): 0.10
- Absorbance (net absorbance at 490 nm, net growth after 72 h) ([2]; lovastatin 4 μM, negative = cell killing): −0.02
- Growth (average percent cell survival relative to the control group) ([3]; lovastatin 3 μM): 100%
- Growth (average percent cell survival relative to the control group) ([3]; lovastatin 3.0 μM): 100%
- G2 phase cells [4]: 15.7%
- G1 phase cells [4]: 62.0%
- S phase cells [4]: 22.3%
- G2 phase cells (B16 cancer cell cultures): 9.3%
- S phase cells (B16 cancer cell cultures): 22.2%
- G1 phase cells (B16 cancer cell cultures): 68.5%
- Growth (average percent cell survival relative to the control group after 72 h exposure period) (B16 melanoma cells; [6]): 71%
- Growth (average percent cell survival relative to the control group) (B16 melanoma cells; lovastatin 0.5 μM): 100%
- Growth (average percent cell survival relative to the control group) (B16 melanoma cells; lovastatin 1.0 μM): 83%
- Growth (average percent cell survival relative to the control group) (B16 melanoma cells; lovastatin 3.0 μM): 42%

Compound: γ-tocotrienol
- Growth (average percent cell survival relative to the control group after 72 h exposure period) [1, 5]: 87%
- Absorbance (net absorbance at 490 nm, net growth after 72 h) ([1]; γ-tocotrienol 5 μM): 0.39
- Growth (average percent cell survival relative to the control group) ([1]; γ-tocotrienol 5 μM): 87%
- Absorbance (net absorbance at 490 nm, net growth after 72 h) ([1]; γ-tocotrienol 10 μM): 0.40
- Growth (average percent cell survival relative to the control group) ([1]; γ-tocotrienol 10 μM): 68%
- Absorbance (net absorbance at 490 nm, net growth after 72 h) ([1]; γ-tocotrienol 20 μM): 0.33
- Growth (average percent cell survival relative to the control group) ([1]; γ-tocotrienol 20 μM): 70%
- Absorbance (net absorbance at 490 nm, net growth after 72 h) ([1]; γ-tocotrienol 30 μM): 0.20
- Absorbance (net absorbance at 490 nm, net growth after 72 h) ([1]; γ-tocotrienol 40 μM, negative = cell killing): −0.05
- IC50 [1]: 20 ± 2 µM
- Growth (average percent cell survival relative to the control group) ([2]; γ-tocotrienol 20 μM): 100%
- Absorbance (net absorbance at 490 nm, net growth after 72 h) ([2]; γ-tocotrienol 40 μM): 0.36
- Absorbance (net absorbance at 490 nm, net growth after 72 h) ([2]; γ-tocotrienol 80 μM): 0.02
- IC50 [2]: 39 µM
- Growth (average percent cell survival relative to the control group) ([3]; γ-tocotrienol 5 μM): 100%
- Growth (average percent cell survival relative to the control group) ([3]; γ-tocotrienol 10 μM): 76%
- Growth (average percent cell survival relative to the control group) ([3]; γ-tocotrienol 20 μM): 70%
- G2 phase cells [4]: 12.2%
- G1 phase cells [4]: 66.7%
- S phase cells [4]: 21.1%
- Growth (average percent cell survival relative to the control group) (B16 melanoma cells; γ-tocotrienol 5 μM): 73%

Compound: CC(=O)O[C@H]1C(=O)[C@@]2(C)[C@H]([C@H](OC(=O)c3ccccc3)[C@]3(O)C[C@H](OC(=O)[C@H](O)[C@@H](NC(=O)c4ccccc4)c4ccccc4)C(C)=C1C3(C)C)[C@]1(OC(C)=O)CO[C@@H]1C[C@@H]2O [Taxol, taxol, reference compound]
- Growth (average percent cell survival relative to the control group) ([2]; taxol 2 nM): 97 ± 5%
- Growth (average percent cell survival relative to the control group) ([2]; taxol 5 nM): 71 ± 1%

Compound: CC(C)=CCC/C(C)=C/COC(=O)c1ccccc1N [Geranyl Anthranilate, geranyl anthranilate]
- G2 phase cells (B16 cancer cell cultures): 9.8%
- S phase cells (B16 cancer cell cultures): 22.9%
- G1 phase cells (B16 cancer cell cultures): 67.3%
- Growth (average percent cell survival relative to the control group after 72 h exposure period) (B16 melanoma cells; [6]): 81%

Compound: C=C(C)[C@@H]1CC=C(CO)CC1 [Perillyl Alcohol, perillyl alcohol]
- Absorbance (net absorbance at 490 nm, net growth after 72 h) ([1]; perillyl alcohol 100 μM): 0.46
- Absorbance (net absorbance at 490 nm, net growth after 72 h) ([1]; perillyl alcohol 200 μM): 0.40
- Absorbance (net absorbance at 490 nm, net growth after 72 h) ([1]; perillyl alcohol 400 μM): 0.18
- Absorbance (net absorbance at 490 nm, net growth after 72 h) [1, 7]: −0.06
- Absorbance (net absorbance at 490 nm, net growth after 72 h) ([1]; perillyl alcohol 1600 μM, negative = cell killing): −0.05
- IC50 ([1]; Homo sapiens, DU-145): 420 µM
- IC50 ([2]; Homo sapiens): 480 µM
- Absorbance (net absorbance at 490 nm, net growth after 72 h) ([2]; perillyl alcohol 200 μM): 0.34
- Absorbance (net absorbance at 490 nm, net growth after 72 h) ([2]; perillyl alcohol 400 μM): 0.09
- Absorbance (net absorbance at 490 nm, net growth after 72 h) ([2]; perillyl alcohol 600 μM): 0.06
- Absorbance (net absorbance at 490 nm, net growth after 72 h) [2, 7]: −0.05

Compound: O=c1c(-c2ccc(O)cc2)coc2cc(O)cc(O)c12 [Genistein, genistein]
- Absorbance (net absorbance at 490 nm, net growth after 72 h) ([1]; genistein 10 μM): 0.53
- Growth (average percent cell survival relative to the control group) ([1]; genistein 10 μM): 100% and 93%
- Growth (average percent cell survival relative to the control group after 72 h exposure period) [1, 5]: 100%
- Absorbance (net absorbance at 490 nm, net growth after 72 h) ([1]; genistein 20 μM): 0.34
- Growth (average percent cell survival relative to the control group) ([1]; genistein 20 μM): 97%
- Absorbance (net absorbance at 490 nm, net growth after 72 h) ([1]; genistein 40 μM): 0.20
- Growth (average percent cell survival relative to the control group) ([1]; genistein 40 μM): 38 ± 10%
- IC50 ([1]; Homo sapiens, DU-145): 30 µM
- IC50 ([2]; Homo sapiens): 70 ± 17 µM
- Growth (average percent cell survival relative to the control group) ([2]; genistein 10 μM): 121 ± 3%
- Growth (average percent cell survival relative to the control group) ([2]; genistein 20 μM): 87% and 95 ± 4%
- Growth (average percent cell survival relative to the control group) ([2]; genistein 40 μM): 78% and 74 ± 11% and 84 ± 2%
- Absorbance (net absorbance at 490 nm, net growth after 72 h) ([2]; genistein 10 μM): 0.43
- Absorbance (net absorbance at 490 nm, net growth after 72 h) ([2]; genistein 20 μM): 0.39
- Absorbance (net absorbance at 490 nm, net growth after 72 h) ([2]; genistein 40 μM): 0.32
- Growth (average percent cell survival relative to the control group) ([3]; genistein 10 μM): 100%
- Growth (average percent cell survival relative to the control group) ([3]; genistein 20 μM): 70% and 99%
- G2 phase cells [4]: 15.8%
- G1 phase cells [4]: 64.9%
- S phase cells [4]: 19.3%
- G2 phase cells (B16 cancer cell cultures): 10.8%
- S phase cells (B16 cancer cell cultures): 21.7%
- G1 phase cells (B16 cancer cell cultures): 67.6%
- Growth (average percent cell survival relative to the control group) (B16 melanoma cells; genistein 5 μM): 83%
- Observed Growth (empirical percentage survival) (B16 melanoma cells; genistein 5.0 μM): 63%
- Growth (average percent cell survival relative to the control group after 72 h exposure period) (B16 melanoma cells; [6]): 73%

Compound: CC(C)=CCCC(C)=CCCC(C)=CCO [Farnesol, farnesol]
- Growth (average percent cell survival relative to the control group) ([1]; farnesol 50 μM): 38%
- Growth (average percent cell survival relative to the control group) ([1]; farnesol 100 μM): 79 ± 11%
- Growth (average percent cell survival relative to the control group) ([2]; farnesol 50 μM): 53 ± 5%
- Growth (average percent cell survival relative to the control group) ([2]; farnesol 100 μM): 93 ± 7%
- Observed Growth (empirical percentage survival) (B16 melanoma cells; farnesol 12.5 μM): 84%
- Observed Growth (empirical percentage survival) (B16 melanoma cells; farnesol 25 μM): 54%
